Results: patent US20070179120A1, “HYDROXYL COMPOUNDS AND COMPOSITIONS FOR CHOLESTEROL MANAGEMENT AND RELATED USES” (ESPERION THERAPEUTICS, INC., priority 2003, published 2007)
Like-named read-outs stand apart in the source and are kept apart here.

Columns and labels:
[1] = system: female Syrian hamsters; assay: Chow-fed female Syrian hamsters, 3 weeks of oral dosing: lipoprotein cholesterol, triglycerides, glucose, insulin, body weight, bile acids; type: in vivo; conditions: chow-fed hamster, 100 mg/kg/day oral, 3 weeks of dosing
Procedure: Ten week old female Syrian hamsters were acclimated for 21 days to a shortened light and dark cycle (10 hours of light/14 hours of darkness). During the acclimation and drug intervention period animals were allowed free access to rodent chow (Purina 5001) and water except for a 6 hour period prior to blood sampling. Following the 21 day acclimation period ESP 55015 was administered daily for three weeks, between 8 10 AM, at a dose of 100 mg/Kg by oral gavage in a dosing vehicle consisting of 20% Ethanol/80% Polyethylene glycol 200 [v/v]. Prior to and in the afternoon following the 13th and 21st doses blood samples were collected, between 2 PM and 4 PM, by administering O2/CO2 anesthesia and bleeding from the orbital venous plexus. All blood samples were processed for separation of serum. Serum samples were subsequently assayed for total cholesterol, total cholesterol lipoprotein profiles (HDL cholesterol, LDL cholesterol and VLDL cholesterol), the ratio of HDL cholesterol, LDL cholesterol and VLDL cholesterol), the ratio of HDL cholesterol to non HDL cholesterol (LDL C, VLDL C) and triglycerides (Table 4). Percent body weight gain and ratio of liver weight to body weight were also determined.

[2] = system: primary rat hepatocytes; assay: Inhibition of lipid synthesis ([1-14C]-acetate incorporation) in primary rat hepatocytes; type: cell-based; conditions: Hepatocyte, 4 hours incubation, 0-300 μM
Procedure: Compounds were tested for inhibition of lipid synthesis in primary cultures of rat hepatocytes. Male Sprague-Dawley rats were anesthetized with intraperitoneal injection of sodium pentobarbital (80 mg/kg). Rat hepatocytes were isolated essentially as described by the method of Seglen (Seglen, P. O. Hepatocyte suspensions and cultures as tools in experimental carcinogenesis. J. Toxicol. Environ. Health 1979, 5, 551-560). Hepatocytes were suspended in Dulbecco's Modified Eagles Medium containing 25 mM D-glucose, 14 mM HEPES, 5 mM L-glutamine, 5 mM leucine, 5 mM alanine, 10 mM lactate, 1 mM pyruvate, 0.2% bovine serum albumin, 17.4 mM non-essential amino acids, 20% fetal bovine serum, 100 nM insulin and 20 μg/mL gentamycin) and plated at a density of 1.5×10^5 cells/cm^2 on collagen-coated 96-well plates. Four hours after plating, media was replaced with the same media without serum. Cells were grown overnight to allow formation of monolayer cultures. Lipid synthesis incubation conditions were initially assessed to ensure the linearity of [1-^14C]-acetate incorporation into hepatocyte lipids for up to 4 hours. Hepatocyte lipid synthesis inhibitory activity was assessed during incubations in the presence of 0.25 μCi [1-^14C]-acetate/well (final radiospecific activity in assay is 1 Ci/mol) and 0, 1, 3, 10, 30, 100 or 300 μM of compounds for 4 hours. At the end of the 4-hour incubation period, medium was discarded and cells were washed twice with ice-cold phosphate buffered saline and stored frozen prior to analysis. To determine total lipid synthesis, 170 μl of MicroScint-E® and 50 μl water was added to each well to extract and partition the lipid soluble products to the upper organic phase containing the scintillant. Lipid radioactivity was assessed by scintillation spectroscopy in a Packard TopCount NXT.

[3] = system: obese female Zucker rats; assay: Oral daily treatment of obese female Zucker rats for fourteen days: serum lipids, glycemic control indicators, body weight; type: in vivo, rat; conditions: for change in vivo at 100 mg/kg/day / change in vivo at 100 mg/kg: Rattus norvegicus, 336 h; for change in vivo at 100 mg/kg/day: 100 mg/kg/day oral gavage, read-out: % wt. gain; for change in vivo at 100 mg/kg / HDL-C/non-HDL-C: 100 mg/kg/day oral; for HDL-C/non-HDL-C: serum ratio
Procedure: In a number of different experiments, illustrative compounds of the invention are administered daily at a dose of up to 100 mg/kg to chow fed obese female Zucker rats for fourteen days in the morning by oral gavage in 1.5% carboxymethylcellulose/0.2% Tween 20 or 20% ethanol/80% polyethylene glycol (dosing vehicles). Animals are weighed daily. Animals are allowed free access to rodent chow and water throughout the study except on days of blood sampling where food is restricted for six hours prior to blood sampling. Blood glucose is determined after the 6 hour fast in the afternoon without anesthesia from a tail vein. Serum is also prepared from pretreatment blood samples subsequently obtained from the orbital venous plexus (with O2/CO2 anesthesia) and following the fourteenth dose at sacrifice from the heart following O2/CO2 anesthesia. Serums are assayed for lipoprotein cholesterol profiles, triglycerides, total cholesterol, Non-HDL cholesterol, HDL cholesterol, the ratio of HDL cholesterol to that of Non-HDL cholesterol, insulin, non-esterified fatty acids, and beta-hydroxy butyric acid. The percent body weight gain and the ratio of liver to body weight is also determined. These are shown as absolute values or as a percent change of the pretreatment values in Table 1 for compounds A-K and in Table 2 for compounds L-M. [drawing 111]

[4] = blood glucose after 6 hour fast, read-out: Glucose (Percent of Pre-treatment)
[5] = serum beta-hydroxy butyric acid, read-out: BHA (Percent of Pre-treatment)
[6] = serum non-esterified fatty acids, read-out: NEFA (Percent of Pre-treatment)
[7] = serum total cholesterol, read-out: TC (Percent of Pre-treatment)
[8] = serum triglycerides, read-out: TG (Percent of Pre-treatment)
[9] = serum, read-out: HDL-C (Percent of Pre-treatment)
[10] = serum, read-out: Insulin (Percent of Pre-treatment)
[11] = serum, read-out: Non-HDL-C (Percent of Pre-treatment)

| Structure (SMILES) | Bile Acids [1] | Body wt. [1] | Glucose [1] | Insulin [1] | HDL-C ([1]; serum) | LDL-C ([1]; serum) | TG ([1]; serum) | VLDL-C ([1]; serum) | IC50 [2] | change in vivo at 100 mg/kg/day [3] | change in vivo at 100 mg/kg [3, 4] | change in vivo at 100 mg/kg [3, 5] | change in vivo at 100 mg/kg [3, 6] | change in vivo at 100 mg/kg [3, 7] | change in vivo at 100 mg/kg [3, 8] | change in vivo at 100 mg/kg [3, 9] | change in vivo at 100 mg/kg [3, 10] | change in vivo at 100 mg/kg [3, 11] | HDL-C/non-HDL-C [3] | melting point |
| --- | --- | --- | --- | --- | --- | --- | --- | --- | --- | --- | --- | --- | --- | --- | --- | --- | --- | --- | --- | --- |
| CC(C)(CO)CCCCCC(O)CCCCCC(C)(C)CO [Compound B] | 67,108 ± 17,529 ng/ml | 146 ± 2 gm | 122 ± 3 | 2.4 ± 0.7 | 63 ± 4 mg/dL | 44 ± 4 mg/dL | 128 ± 37 mg/dL | 4 ± 2 mg/dL | 5.1 µM | 1% | -3% | 199% | -28% | 105% | -87% | 237% | -52% | -81% | 35 | – |
| CC(C)(CO)CCCCCCC(O)CCCCCCC(C)(C)CO [Compound 6.32, 2,2,16,16-Tetramethylheptadecane-1,9,17-triol] | – | – | – | – | – | – | – | – | – | – | – | – | – | – | – | – | – | – | – | 75 to 77 °C |
| CC(C)(CO)CCCCC(O)CCCCC(C)(C)CO [F] | – | – | – | – | – | – | – | – | 6.4 µM | 3% | 10% | – | -43% | 53% | -46% | 222% | -4% | -15% | 2 | – |
| CC(C)(CO)CCCCCC(O)CCCCC(C)(C)CO (stereo not shown) [Compound 6.27, 2,2,13,13-Tetramethyltetradecane-1,7,14-triol] | – | – | – | – | – | – | – | – | – | – | – | – | – | – | – | – | – | – | – | 79 to 80 °C |
| CC(C)(CO)CCCCCC(O)CCCCC(C)(C)CO (stereo not shown) [D] | – | – | – | – | – | – | – | – | 1.6 µM | – | – | – | – | – | – | – | – | – | – | – |
| CC(C)(CO)CCCCC(CO)CCCCC(C)(C)CO [J] | – | – | – | – | – | – | – | – | 17 µM | 12% | 21% | 183% | -32% | -6% | -23% | -2% | -11% | -12% | 2 | – |
| CC(C)(CCCCC(CO)CCCCC(C)(C)C(=O)O)C(=O)O [K] | – | – | – | – | – | – | – | – | 14 µM | 10% | 3% | 253% | -32% | 35% | -45% | 62% | 41% | -38% | 9 | – |
| CC(C)(CO)CCCCC(CCCCC(C)(C)CO)C(C)(C)O [Compound 6.12, 7-(1-Hydroxy-1-methylethyl)-2,2,12,12-tetramethyltridecane-1,13-diol] | – | – | – | – | – | – | – | – | – | – | – | – | – | – | – | – | – | – | – | 72 to 74 °C |
| CC(C)(CO)CCCCCC(O)CCCCCC(C)(C)CO [Compound 6.17, 2,2,14,14-Tetramethylpentadecane-1,8,15-triol] | – | – | – | – | – | – | – | – | – | – | – | – | – | – | – | – | – | – | – | 71 to 75 °C |
| CC(C)(CO)CCCCCCCC(O)CCCCCCCC(C)(C)CO [H] | – | – | – | – | – | – | – | – | 2.6 µM | 9% | 19% | 97% | -30% | 61% | -36% | 115% | -30% | -5% | 3 | – |
| CC(C)(CO)CCCCC(O)CCCCC(C)(C)C(=O)O (stereo not shown) [Compound I] | – | – | – | – | – | – | – | – | 2.3 µM | – | – | – | – | – | – | – | – | – | – | – |
| CC(C)(CCCCC(O)CCCCC(C)(C)C(=O)O)C(=O)O [A] | – | – | – | – | – | – | – | – | 3.4 µM | 12% | -2% | 231% | -11% | 14% | -59% | 50% | 43% | -41% | 5 | – |
| CC(C)(CO)CCCCCCC(O)CCCCCCC(C)(C)CO [G] | – | – | – | – | – | – | – | – | 7.8 µM | 9% | 14% | 163% | -62% | 21% | -80% | 68% | -38% | -68% | 12 | – |
| CC(C)(CCCCC(O)CCCC(C)(C)C(=O)O)C(=O)O (stereo not shown) [E] | – | – | – | – | – | – | – | – | 8.3 µM | – | – | – | – | – | – | – | – | – | – | – |
| CCCCC(O)CCCCCC(C)(C)C(=O)O (stereo not shown) [L] | – | – | – | – | – | – | – | – | – | 12% | 13% | 88% | -27% | -3% | -37% | -2% | -37% | -11% | 4 | – |
| CC(C)(CCCCCC(O)CCCCCC(C)(C)C(=O)O)C(=O)O [C] | – | – | – | – | – | – | – | – | 1 µM | 3% | -11% | 171% | -42% | 105% | -90% | 169% | -57% | -80% | 40 | – |
